Tests used:
[1] = system: Plasmodium falciparum; assay: microbe, parasite or virus in culture; conditions: Dd2, 72 h
[2] = system: Plasmodium falciparum; assay: microbe, parasite or virus in culture; conditions: D6, 72 h
[3] = system: Plasmodium falciparum; assay: microbe, parasite or virus in culture; conditions: Tm90-C2B, 72 h
[4] = Metabolic stability in mouse liver microsomes assessed as intrinsic clearance measured upto 60 mins LC-MS analysis
[5] = Aqueous solubility of compound in PBS buffer at pH 7.4 incubated for 90 mins by UV-vis spectroscopic analysis; conditions: pH 7.4, 1.5 h
[6] = Metabolic stability in mouse liver microsomes assessed as half life measured upto 60 mins LC-MS analysis
[7] = system: HepG2; assay: Cytotoxicity against human HepG2 cells assessed as cell viability incubated for 72 hrs by MTT assay; assay type: toxicity, cell-based; conditions: hepg2
[8] = Metabolic stability in human liver microsomes assessed as half life measured upto 60 mins LC-MS analysis
[9] = system: Plasmodium yoelii; assay: Antiplasmodial activity against asexual erythrocytic stage of Plasmodium yoelii infected in female CFI mouse model assessed as reduction in parasitemia at 25 mg/kg, po administered once daily for 4 days and measured on day 5 by Giemsa staining based microscopic analysis relative to control; assay type: functional; design: scale not given: the % may be the effect or the level left; conditions: time 5 day
[10] = in vitro; conditions: human
Description: Selectivity index, ratio of IC50 for cytotoxicity against human HepG2 cells assessed as cell viability to IC50 for antiplasmodial activity against asexual erythrocytic stage of Plasmodium falciparum D6 assessed as inhibition of parasitic growth incubated

[11] = Metabolic stability in human liver microsomes assessed as intrinsic clearance measured upto 60 mins LC-MS analysis

IC50 [1] [nM] | IC50 [2] [nM] | IC50 [3] [nM] | microsomal CLint at 1 h [4] [µL/min/mg] | solubility [5] [µM] | half-life at 1 h [6] [min] | half-life at 1 h [8] [min] | microsomal CLint at 1 h [11] [µL/min/mg] | Structure (SMILES) | IC50 [7] [nM] | Activity [9] [%] | selectivity ratio [10]
> 2500 | > 2500 | > 2500 |  |  |  |  |  | CCCCCCCCCCCCN/C=C1\N=C(c2ccc[nH]2)C=C1Oc1ccccc1 |  |  | 
7.49 | 6.45 | 5.25 | 17.8 | 5.91 | > 60 | 19.3 | 71.7 | C1=C(OCc2ccccc2)/C(=C/NC23CC4CC(CC(C4)C2)C3)N=C1c1ccc[nH]1.Cl | 1100 | 63 | 171
1400 | 1320 | 2300 |  |  |  |  |  | CCCCCCCCCCCc1ccc(/C=C2\N=C(c3ccc[nH]3)C=C2Oc2ccc(Cl)cc2)[nH]1 |  |  | 
60.2 |  | 54.6 |  |  |  |  |  | CCCCCCCCCCCCN/C=C1\N=C(c2ccc[nH]2)C=C1OCc1ccccc1.Cl | 7740 | 0 | 144
> 2500 | 1190 | 1690 |  |  |  |  |  | FC(F)(F)Oc1ccc(OC2=CC(c3ccc[nH]3)=N/C2=C\NC2CCCCCC2)cc1 |  |  | 
> 2500 | > 2500 | > 2500 |  |  |  |  |  | CCCCCCCCCCCc1ccc(/C=C2\N=C(c3ccc[nH]3)C=C2OCc2ccc(OC(F)(F)F)cc2)[nH]1 |  |  | 
1690 |  | 884 |  |  |  |  |  | CC(C)CN/C=C1\N=C(c2ccc[nH]2)C=C1Oc1ccccc1 |  |  | 
681 | 517 | 561 |  |  |  |  |  | Clc1ccc(OC2=CC(c3ccc[nH]3)=N/C2=C\NC2CCCCCC2)cc1 |  |  | 
350 | 413 | 320 |  |  |  |  |  | CCCCCCCCCCCCN/C=C1\N=C(c2ccc[nH]2)C=C1OCc1ccc(OC(F)(F)F)cc1 |  |  | 
340 | 410 | 305 |  |  |  |  |  | CCCCCCCCCCCCN/C=C1\N=C(c2ccc[nH]2)C=C1OCc1ccc(Cl)cc1 |  |  | 
5.27 | 7.33 | 4.93 | 14.4 | 178 | > 60 | 35.7 | 38.8 | CCOC1=CC(c2ccc[nH]2)=N/C1=C\NC1CCCCCC1.Cl | 2260 | 8.5 | 
0.632 |  | 0.348 | 26 | 77.7 | 53.2 | 35.2 | 39.4 | CCCOC1=CC(c2ccc[nH]2)=N/C1=C\NC1CCCCCC1.Cl | 2890 | 75.5 | 7960

The remaining lines, values behind:

Structure (SMILES) | IC50 [1] [nM] | IC50 [2] [nM] | IC50 [3] [nM] | microsomal CLint at 1 h [4] [µL/min/mg] | solubility [5] [µM] | half-life at 1 h [6] [min] | half-life at 1 h [8] [min] | microsomal CLint at 1 h [11] [µL/min/mg] | IC50 [7] [nM] | Activity [9] [%] | selectivity ratio [10]
CCCCCCCCCCCc1ccc(/C=C2\N=C(c3ccc[nH]3)C=C2Oc2ccc(OC(F)(F)F)cc2)[nH]1 | > 2500 | > 2500 | > 2500 |  |  |  |  |  |  |  | 
OC(c1cc(C(F)(F)F)nc2c(C(F)(F)F)cccc12)C1CCCCN1 (centres undefined) [MEFLOQUINE] |  |  |  |  |  |  |  |  | 13700 |  | 
CC(C)CN/C=C1\N=C(c2ccc[nH]2)C=C1Oc1ccc(OC(F)(F)F)cc1 | > 2500 | > 2500 | > 2500 |  |  |  |  |  |  |  | 
Cl.Clc1ccc(COC2=CC(c3ccc[nH]3)=N/C2=C\NC23CC4CC(CC(C4)C2)C3)cc1 | 8.56 | 14.1 | 11.4 |  |  |  |  |  | 2250 | 40 | 160
Cl.Clc1ccc(OC2=CC(c3ccc[nH]3)=N/C2=C\NC23CC4CC(CC(C4)C2)C3)cc1 | 22 | 52.8 | 28.3 | 2.1 |  | > 60 | > 60 | 6.72 |  | 58 | 275
CCCCCCCCCCCCN/C=C1\N=C(c2ccc[nH]2)C=C1OCC.Cl | 9.68 | 11.1 | 12.7 |  |  |  |  |  | 4350 | 0 | 391
CCCCCCCCCCCCN/C=C1\N=C(c2ccc[nH]2)C=C1OC | 69.9 | 65.9 | 96.9 |  |  |  |  |  | 6100 |  | 93
CCOC1=CC(c2ccc[nH]2)=N/C1=C\NCC(C)C.Cl | 46.7 | 30 | 41.6 |  |  |  |  |  | 4620 | 0 | 154
COC1=CC(c2ccc[nH]2)=N/C1=C\NCC(C)C | 92.8 | 112 | 103 |  |  |  |  |  | 19100 | 18.2 | 170
